Measurements taken from publication PMC11571015, “Hybrids of Membrane-Translocating Antimicrobial Peptides Show Enhanced Activity through Membrane Permeabilization” (ACS Medicinal Chemistry Letters, 2024).
In brackets after ≈: the same amount, converted by molar mass.

How the values were obtained:
[1] = test system: E. coli; format: cell-based, E. coli (Top10 Strain); conditions: median MIC; microbroth dilution, 1:2 serial dilution 18.2 to 1.8x10-2 μM, 4 × 10^6 CFU/mL, 1 h 37°C in wash buffer pH 7.4, then TSB overnight (18-24 h), OD600; triplicate per plate; mixture: each peptide at the reported concentration
Procedure: (§1) Supplemental Information for Trevellin et al.
(§2) Peptide design and preparation […]
(§3) synthesized by GenScript (Piscataway, NJ) at >95% purity determined by HPLC and dissolved in DI water. Concentrations were measured by triplicate tryptophan absorbance readings at 280 nm (ε=5700 M–1cm–1, l=1 cm) using a ThermoScientific NanoDrop 2000 (Waltham, MA). Buforin II (BF2) included an F10W mutation used in many previous studies1-5 to allow for concentration measurements.
(§4) Bacteria included E. coli (Top10 Strain, Invitrogen/ThermoFisher) containing a plasmid for ampicillin resistance (Novagen) and/or B. subtilis (ATCC #6051). Bacterial growth was performed in TSB (trypticase soy broth) prepared at 3% w/v (30 g of media in 1 L) from BD Difco unless otherwise noted. Overnight cultures were picked from petri dishes or frozen stock and grown for 14-16 hours at 37 °C in TSB with shaking. E. coli overnight cultures were incubated with 25 μg/mL ampicillin. The overnight cultures were then diluted 1:100 in 25 mL TSB and incubated at 37 °C with shaking for 2.5 h. The culture was pelleted via centrifugation at 1500×g for 10 min at room temperature and resuspended in sterile cold wash buffer (10 mM sodium phosphate buffer and 10 mM sodium chloride, pH 7.4). These resuspended bacteria were then used for radial diffusion, microbroth dilution, and propidium iodide assays. […]
(§5) Microbroth dilution assay
(§6) Microbroth dilution assays were used to determine the minimum inhibitory concentration (MIC) of each peptide for E. coli and B. subtilis (ATCC #6051). A 1:2 serial dilution was prepared for a peptide across the top row of a 96-well plate. 100 μL of bacterial suspension (4 × 10^6 CFU/mL, diluted in sterile wash buffer, 10 mM sodium phosphate buffer and 10 mM sodium chloride, pH 7.4) and 10 μL of peptide were mixed to each well in subsequent rows of the plate. The 11 effective peptide concentrations ranged from 18.2 μM to 1.8x10-2 μM, with DI water used as a control, and each concentration was tested in triplicate per plate. After the bacteria and peptide mixtures were incubated in plates at 37°C for 1 hour, 100 μL of 6% w/v TSB was added to each well. For wells containing E. coli, ampicillin was added at a final concentration of 25 µg/ml. The plate was then incubated overnight (18-24 h) at 37°C. After incubation, OD600nm were measured using the SpectraMax M3 microplate reader (Molecular Devices). […]
(§7) relative permeability = F5/F0
(§8) Each peptide was tested with bacteria grown from at least three distinct overnight […]
(§9) The MTS assay is a colorimetric viability assay for mammalian cells. HEK 293 cells (ATCC CRL-1573) were grown in complete growth medium (EMEM, 10% fetal bovine serum, 1% penicillin-streptomycin). Cells were cultured in a T-75 maintenance flask, fed with fresh media every 1-2 days, and passaged approximately every 5-7 days once cells reached 70-90% confluence. During passaging, HEK 293 cells were plated in a 96-well plate at 20,000 cells/well and incubated for 4-6 hours (37 °C, 95% humidity, 5% CO2). Each column of cells (8 replicates) was then incubated overnight with 18.2 µM peptide or a control. After incubation, media was aspirated and refreshed for each well, […]

[2] = test system: B. subtilis; format: cell-based, B. subtilis (ATCC #6051); conditions: 1 h, pH 7.4
Procedure: as §1, §2, §3, §4, §5, §6, §7, §8, §9

SMILES: CC[C@H](C)[C@H](NC(=O)[C@H](CCCNC(=N)N)NC(=O)[C@@H](NC(=O)[C@H](CCCCN)NC(=O)[C@H](CCCCN)NC(=O)[C@H](CC(N)=O)NC(=O)[C@H](CC(=O)O)NC(=O)[C@H](CCCNC(=N)N)NC(=O)[C@H](C)N)[C@@H](C)O)C(=O)N[C@@H](Cc1c[nH]c2ccccc12)C(=O)N1CCC[C@H]1C(=O)N[C@@H](CCCNC(=N)N)C(=O)N[C@@H](Cc1c[nH]cn1)C(=O)N[C@@H](CC(C)C)C(=O)N[C@@H](CCC(N)=O)C(=O)N[C@@H](CC(C)C)C(=O)N[C@@H](C)C(=O)N[C@H](C(=O)N[C@@H](CCCNC(=N)N)C(=O)N[C@@H](CC(N)=O)C(=O)N1CCC[C@H]1C(=O)N[C@H](C(=O)N[C@@H](CCCNC(=N)N)C(=O)N[C@@H](CO)C(=O)N[C@@H](CO)C(=O)N[C@@H](CCCNC(=N)N)C(=O)N[C@@H](C)C(=O)NCC(=O)N[C@@H](CC(C)C)C(=O)N[C@@H](CCC(N)=O)C(=O)N[C@@H](Cc1c[nH]c2ccccc12)C(=O)N1CCC[C@H]1C(=O)N[C@H](C(=O)NCC(=O)N[C@@H](CCCNC(=N)N)C(=O)N[C@H](C(=O)N[C@@H](Cc1c[nH]cn1)C(=O)N[C@@H](CCCNC(=N)N)C(=O)N[C@@H](CC(C)C)C(=O)N[C@@H](CC(C)C)C(=O)N[C@@H](CCCNC(=N)N)C(=O)N[C@@H](CCCCN)C(=O)O)C(C)C)C(C)C)[C@@H](C)O)C(C)C [DesHDAP1-P-BF2 (DPB)]
- MIC against E. coli [1]: 1.1 µM (≈ 5.53 µg/mL)
- MIC against B. subtilis [2]: 4.6 µM (≈ 23.1 µg/mL)
